This data set can be described thus: Solubility of sorbitol in ethanol. Type of data set: physicochemical. The source says: Sugar alcohols can become heavily supersaturated upon cooling. When water is slowly replaced with ethanol, there can be a significant change in the maximum concentration at which the solute is completely soluble. In this example, blends of a 70% sorbitol solution and ethanol were made.

In the case of `OC[C@@H](O)[C@@H](O)[C@H](O)[C@@H](O)CO` [sorbitol], the “clarity of sorbitol/ethanol blend” value is, setting by setting: (70% sorbitol solution and ethanol, ratio 70:30) “completely clear”; (blends with greater than 30% ethanol) “crystallization of the sorbitol”.

These data come from patent publication US10898873B2, “Lecithin compositions and methods of making and using such lecithin compositions” (Archer Daniels Midland Company, priority 2015, dated 2021).
